From patent publication US9308198B2, “Treatment, prevention, and reversal of alcohol-induced brain disease” (priority 2006, dated 2016) come the findings set out here.

Holding throughout (assay): Equilibrium binding assay, primary cerebellar neuron cultures
What all share (format): cell-based, rat

The subject of assay [1] is IGF-II receptor. The protocol:
(§1) Fresh frozen tissue (˜100 mg) was homogenized in 5 volumes of NP-40 lysis buffer (50 mM Tris-HCl, pH 7.5, 1% NP-40, 150 mM NaCl, 1 mM EDTA, 2 mM EGTA) containing protease inhibitors (1 mM PMSF, 0.1 mM TPCK, 1 μg/ml aprotinin, 1 μg/ml pepstatin A, 0.5 μg/ml leupeptin, 1 mM NaF, 1 mM Na4P2O7). Protein concentrations were determined using the bicinchoninic acid (BCA) assay (Pierce, Rockford, Ill.). Exploratory studies determined the amounts of protein and concentrations of radiolabeled ligand required to achieve 20% specific binding. Insulin receptor binding assays were performed using 100 μg protein. IGF-I binding assays required 25 μg protein per sample, and IGF-II receptor binding assays were optimized using 10 μg protein. Competitive equilibrium binding assays were used to assess growth factor binding in relation to ethanol exposure. For total binding, duplicate individual protein samples were incubated in 100 μl reactions containing binding buffer (100 mM HEPES, pH 8.0, 118 mM NaCl, 1.2 mM MgSO4, 8.8 mM dextrose, 5 mM KCl, 1% bovine serum albumin) and 100 nCi/ml of [^125I] (2000 Ci/mmol; […]) insulin, IGF-I, or IGF-II. To measure non-specific binding, replicate samples were identically prepared but with the addition of 0.1 μM unlabeled (cold) ligand.
(§2) All reactions were performed in 1.5 ml Eppendorff tubes, and the incubations were performed at 4° C. for 16 hours with gentle platform agitation. Bound radiolabeled tracer was then precipitated by adding 500 μl of 0.15% bovine gamma globulin (prepared in 100 mM Tris-HCl, pH 8.0) followed by 400 μl 37.5% polyethylene glycol 8000 (PEG-8000; prepared in 100 mM Tris-HCl, pH 8.0) to each tube. The samples were thoroughly mixed by vortexing, and then incubated on ice for at least 2 hours. The precipitates were collected by centrifuging the samples at 15,000×g for 5 minutes at room temperature. The supernatant fraction, which contained unbound (free) ligand, was transferred in its entirety to a Gamma counting tube (Sarstedt, Newton, N.C.). The Eppendorff tube tip containing the pellet was cut and released directly into a separate Gamma counting tube. The samples were counted for 1 minute in an LKB CompuGamma CS Gamma counter. Specific binding was calculated by subtracting fmol of non-specific binding, i.e., amount bound in the presence of cold ligand, from the total fmol bound (absence of unlabeled competitive ligand). The results were analyzed and plotted using the GraphPad Prism 4 software (GraphPad Software, Inc., San Diego, Calif.).
(§3) In vitro experiments were used to examine the effects of ethanol on receptor binding and choline acetyltransferase (ChAT) and acetylcholinesterase (AChE) expression in cerebellar neurons. Primary neuronal cultures were generated with postnatal day 8 rat pup cerebellar tissue (Nikolic et al. Genes Dev. 10:816 (1996)). The cultures were maintained with Dulbecco's modified Eagle's medium (DMEM) supplemented with 5% fetal calf serum, 4 mM glutamine, 100 μM non-essential amino acid mixture (Gibco-BRL, Grand Island, N.Y.), 25 mM KCl, and 9 g/L glucose. […] Alcohol Clin. Exp. Res. 24:716 (2000); Banerjee et al. Alcohol Clin. Exp. Res. 22:2093 (1998)). Control cultures were identically treated but with water added to the reservoir tray. The chambers were flushed with gas containing 75% nitrogen, 20% oxygen, and 5% carbon dioxide. […] Alternatively, the cells were serum-starved for 12 hours and then stimulated with 10 nM insulin, […], 25 nM IGF-II, or vehicle for 16 hours, and RNA was harvested to measure ChAT and AChE expression.

For assay [2], the system named is insulin receptor. As to the method: as §1, §2, §3
For assay [3], the system named is IGF-I receptor. As to the method:
as §1
All reactions were performed in 1.5 ml Eppendorff tubes, and the incubations were performed at 4° C. for 16 hours with gentle platform agitation. Bound radiolabeled tracer was then precipitated by adding 500 μl of 0.15% bovine gamma globulin (prepared in 100 mM Tris-HCl, pH 8.0) followed by 400 μl 37.5% polyethylene glycol 8000 (PEG-8000; prepared in 100 mM Tris-HCl, pH 8.0) to each tube. […] The samples were counted for 1 minute in an LKB CompuGamma CS Gamma counter. Specific binding was calculated by subtracting fmol of non-specific binding, i.e., amount bound in the presence of cold ligand, from the total fmol bound (absence of unlabeled competitive ligand). The results were analyzed and plotted using the GraphPad Prism 4 software (GraphPad Software, Inc., San Diego, Calif.). […]

Setting [4] is: 10 mM for 3 hours, control cerebellar neurons.
Setting [5] is: 50 mM ethanol for 96 hours vs control cultures.
Setting [6] is: 10 mM for 3 hours, control and ethanol-exposed cultures, relative to vehicle-treated cells.

In the case of `CC(C)CCC[C@@H](C)[C@H]1CC[C@H]2[C@@H]3CC=C4C[C@@H](O)CC[C@]4(C)[C@H]3CC[C@]12C` [cholesterol], the IGF-II receptor binding entry in assay [1] (setting [4]) was “significantly impaired”. Further, the insulin receptor binding entry in assay [2] (10 mM for 3 hours, control cells) is reported as “no significant effect”. The insulin-receptor binding entry in assay [2] (10 mM for 3 hours, ethanol-treated cells) was “enhanced”. Moreover, the IGF-I receptor binding result in assay [3] (setting [4]) is “significantly impaired”.
For `CCO` [ethanol], the IGF-II receptor binding entry in assay [1] (setting [5]) is given as “significantly reduced”. In addition, the insulin receptor binding entry in assay [2] (setting [5]) was “significantly reduced”. In assay [3] (setting [5]), the IGF-I receptor binding result is “significantly reduced”.
Take Methyl-β-cyclodextrin [MβCD]: in assay [1] (setting [6]), the IGF-II receptor binding result is given as “significantly inhibited”. In assay [2] (setting [6]), the insulin receptor binding result is recorded as “significantly inhibited”. For the same molecule, the IGF-I receptor binding result in assay [3] (setting [6]) is on record as “significantly inhibited”.
